In US6642215B2 (Leo Pharma A/S, priority 2001, dated 2003):

Assays:
NF-κB [1] = assay: NF-κB-dependent luciferase reporter assay in LPS-stimulated THP-1 cells; type: cell-based, human; conditions: 1 μM compound, then 1 μg/ml LPS 5 h
Description: Luciferase plasmids: The NF-κB-luciferase reporter plasmid (pBIIX) was a gift from Marja Jäättelä and Ida S. Mathiasen, the Danish Cancer Society. It was constructed by inserting a synthetic fragment with two copies of the sequence (5′-ACAGAGGGGACTTTCCGAGAG-3′ separated by four nucleotides (5′-ATCT-3′) in front of a mouse fos promoter in a plasmid pfLUC (a pBluescript-based plasmid with a firefly luciferase encoding sequence) (K. Saksela and D. Baltimore, Mol. Cell Biol. 13, 1993, pp. 3698-3705) The NF-κB binding site from the mouse Igκ light chain is underlined (M. Grilli et al., Int. Rev, Cytol. 143, 1993, pp. 1-62). A Renilla luciferase plasmid with a thymidine kinase promoter (pRL-TK vector) was used as a control for transfection efficiency and was obtained from Promega Inc., Madison, Wis. Plasmid DNA was prepared and purified using the QIAGEN EndoToxin-free Maxiprep-500 kit (QIAGEN, Hilden, Germany). […]
The cell lysate was assayed for luciferase activity using the Dual luciferase kit as described by the manufacturer (Promega). […] Firefly luciferase activity was corrected for differences in transfection efficiency by normalizing it to the measured Renilla luciferase activity.

NF-κB [2] = assay: NF-κB-dependent luciferase assay in PC-3 cells, TNF-α stimulation; type: cell-based, human; conditions: compound 24 h before TNF-α 50 ng/ml 6 h
Procedure: The NF-κB-luciferase reporter plasmid (pBIIX) and pRL-TK control vector described in Example 1 were used for the luciferase assay,
The PC-3 cells were seeded at a density of 3×10^4 cells/cm^2 in 6 well-plates. The following day, the cells were co-transfected with construct DNA and pRL-TK vector using DOTAP liposomal transfection reagent (Boehringer Mannheim). The construct DNA (4.0 μg per well), the pRL-TK vector (1.0 μg per well), DOTAP (16.7 μl per well) and dH2O (total volume 100 μl per well) were carefully mixed and incubated for 15 min at 37° C. A growth medium without serum (900 μl per well) was added and the transfection mixture (1 ml per well) was added to the cells. After 4 h at 37° C., a growth medium with 20% FBS (1 ml per well) was added. The cells were treated at 37° C. with compound A (10^−12−10^−5 M) or DMSO for 24 h before stimulation with TNF-α (50 ng/ml) for 6 h.
The cell lysate was assayed for luciferase activity using the Dual luciferase kit as described by the manufacturer (Promega). All transfections were performed in triplicate. Firefly luciferase activity was corrected for differences in transfection efficiency by normalizing it to the measured Renilla luciferase activity.
NF-κB activity was measured by the luciferase assay described in Example 1.

Colo-320 DM = Colo-320 DM xenografts in nude mice, tumour growth; type: in vivo, NMRI nu/nu mice; conditions: Colo-320 xenograft, 50 mg/kg, oral gavage
Procedure: All of the animal experiments were conducted according to the guidelines and ethical standards of the Danish Committee for Animal Experiments. Female NMRI nu/nu mice 6 weeks of age were purchased from M&B (Ry, Denmark). The mice were allowed an acclimatisation period of 1-3 weeks before start of the experiments. The nude mice were housed in Scantainers under semi-sterile conditions and all handling of mice was performed in a laminar flow bench.
Colo-320 DM, NMRI nu/nu mice were injected with 5×10^6 cells in 0.2 ml media s.c. in each flank and tumour size was measured as mentioned above. Compound A was given for three weeks by oral gavage from day 8 when the tumour size was about 20 mm^2. Each treatment group consisted of 10 mice.
Statistical Methods In the animal models, tumour sizes were expressed by the mean of the trends in each treatment group. The trend is the linear increment or tumour size, where tumour size is the square root of the (mean) area of the tumour(s). Comparison with controls was expressed as T/C % and calculated as follows:
A=(overall mean tumour size at baseline+mean trend of treatment*intended days of treatment) […]
Overall mean tumour size at baseline=pooling all treatments this is the mean of all baseline values. For each mouse the baseline value is calculated as the square root of the (mean) area of the tumour(s). […]

Question: `N#CNC(=Nc1ccncc1)NCCCCCCOc1ccc(Cl)cc1` [compound A, N-(6-(4-chlorophenoxy)hexyl)-N′-cyano-N″-(4-pyridyl)guanidine] was tested. Which “NF-κB-dependent luciferase activity, change” value (NF-κB [1]; preincubation 2 h) did it give?
Answer: small decrease

Question: And the “NF-κB-dependent induction of luciferase expression blocked” value (NF-κB [1]; preincubation 24 h, relative to DMSO-treated cells)?
Answer: ~80%

Question: And the “NF-κB activity (IC50 nM)” value (NF-κB [2])?
Answer: no inhibition

Question: And the “In vivo xenografts in nude mice T/C (%)” value (Colo-320 DM)?
Answer: −50%
